Like-named read-outs stand apart in the source and are kept apart here.
Target: T1, RXRα:RXRα homodimer (Homo sapiens, UniProt P19793)
T1 sequence (P19793 1-462): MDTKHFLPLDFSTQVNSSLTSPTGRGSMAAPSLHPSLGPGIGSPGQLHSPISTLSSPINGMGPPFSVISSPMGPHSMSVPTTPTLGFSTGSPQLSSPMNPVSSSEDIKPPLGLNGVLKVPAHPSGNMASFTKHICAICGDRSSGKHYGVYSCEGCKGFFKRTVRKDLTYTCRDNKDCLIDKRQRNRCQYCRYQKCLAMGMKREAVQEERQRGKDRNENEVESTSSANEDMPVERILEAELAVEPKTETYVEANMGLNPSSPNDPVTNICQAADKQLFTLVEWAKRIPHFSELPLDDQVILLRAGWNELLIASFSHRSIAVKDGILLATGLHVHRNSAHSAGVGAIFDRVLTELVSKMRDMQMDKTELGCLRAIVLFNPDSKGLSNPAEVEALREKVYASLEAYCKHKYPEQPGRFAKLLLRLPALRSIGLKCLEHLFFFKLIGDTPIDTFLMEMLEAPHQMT
Test: RXR homodimer co-transfection assay (antagonist) in CV-1 cells
Assay type: cell-based
Conditions: for IC50: in the presence of 3.2×10^−8 M LGD1069, read-out: RXR Antagonist CTF IC50
Excerpt: In the co-transfection assay, cloned cDNA for one or more IRs (e.g. human RARα, RXRα, or PPARγ), alone or in combination (i.e. for heterodimer assays) under the control of a constitutive promoter (e.g., the SV 40, RSV or CMV promoter) is introduced by transfection (a procedure to introduce exogenous genes into cells) into a background cell substantially devoid of endogenous IRs. These introduced gene(s) direct the recipient cells to make the IR protein(s) of interest. A further gene is also introduced (co-transfected) into the same cells in conjunction with the IR gene(s). This further gene, comprising the cDNA for a reporter protein, such as firefly luciferase (LUC), controlled by an appropriate hormone responsive promoter containing a hormone response element (HRE). This reporter plasmid functions as a reporter for the transcriptional-modulating activity of the target IR(s). Thus, the reporter acts as a surrogate for the products (mRNA then protein) normally expressed by a gene under control of the target receptor(s) and their native hormone(s). The co-transfection assay can detect small molecule agonists or antagonists, including partial agonists and antagonist, of target IRs. Exposing the transfected cells to an agonist ligand compound increases reporter activity in the transfected cells. This activity can be conveniently measured, e.g., by increasing luciferase production and enzymatic activity, which reflects compound-dependent, IR-mediated increases in reporter transcription. […] Increasing concentrations of an antagonist will decrease the reporter signal (e.g., luciferase production). The co-transfection assay is therefore useful to detect both agonists and antagonists of specific IRs. Furthermore, it determines not only whether a compound interacts with a particular IR, but whether this interaction mimics (agonizes) or blocks (antagonizes) the effects of native or synthetic regulatory molecules on target gene expression, as well as the specificity and strength of this interaction. […] To determine agonist and antagonist activity of the modulator compounds of the present invention, the CV-1 cells were transiently transfected by calcium phosphate coprecipitation according to the procedure of Berger et al., 41 J. Steroid Biochem. Mol. Biol., 733 (1992) with the receptor expressing plasmid […] et al., 345 Nature, 224 (1990), the disclosures of which are herein incorporated by reference at a concentration of 10 ng/well. The receptor expression plasmid was cotransfected along with a reporter plasmid at 50 ng/well, the internal control plasmid pRS-β-Gal at 50 ng/well and filler DNA, pGEM, at 90 ng/well. The reporter plasmid […], which contains an RXRE (retinoid X receptor response element, as described in Mangelsdorf et al., 66 Cell, 555 (1991), the disclosure of which is herein incorporated by reference, was used in transfections for the RXR homodimer assay. This reporter plasmid contains the cDNA for firefly luciferase (LUC) under the control of a promoter containing the RXR response element. As noted above, pRS-β-Gal, coding for constitutive expression of E. coli β-galactosidase (β-Gal), was included as an internal control for evaluation of transfection efficiency and compound toxicity. Six hours after transfection, media was removed and the cells were washed with phosphate-buffered saline (PBS). Media containing compounds of the present invention in concentrations ranging from 10^-10 to 10^-5 M were added to the cells. […] Ligand Pharmaceuticals, Inc.), compounds with known agonist activity on RXRs, were added at similar concentrations to provide a reference point for analysis of the agonist activity of the compounds of the present invention. […] Ligand Pharmaceuticals, Inc.). Retinoid purity was established as greater than 99% by reverse phase high-performance liquid chromatography. Retinoids were dissolved in dimethylsulfoxide for use in the transcriptional activation assays. Two to three replicates were used for each sample. […]

[1] = CV-1 cells, antagonist efficacy as % of maximal inhibition, read-out: RXR Antagonist CTF % Efficacy

Compound	Emax [1] [%]	IC50 (CV-1 cells) [µM]	Emax (CV-1, read-out: RXR Antagonist CTF % Efficacy) [%]
C/C(=C/C=C(F)/C(C)=C/C(=O)O)c1cc(C(C)(C)C)cc(C(C)(C)C)c1OCC(F)F [Example 1, 7-[3,5-di-tert-butyl-2-(2,2-difluoroethoxy)-phenyl]4-fluoro-3-methyl-octa-2,4,6-trienoic acid]	100	4.84	–
C/C(=C/C(F)=C/C(C)=C/C(=O)O)c1cc(C(C)(C)C)cc(C(C)(C)C)c1OCC(F)F [Example 2, 7-[3,5-Di-tert-butyl-2-(2,2-difluoroethoxy)-phenyl]-5-fluoro-3-methyl-octa-2,4,6-trienoic acid]	100	8.71	–
CCCCOc1c(\C(C)=C/C=C/C(=C/C(=O)O)C(F)(F)F)cc(C(C)C)cc1C(C)C [Example 3, (2Z,4E,6Z)-7-(2-Butoxy-3,5-diisopropylphenyl)-3-trifluoromethyl-octa-2,4,6-trienoic acid]	83	0.921	–
CCCCOc1c(\C(C)=C/C=C/C(=C\C(=O)O)C(F)(F)F)cc(C(C)C)cc1C(C)C [Example 4, (2E,4E,6Z)-7-(2-Butoxy-3,5-diisopropylphenyl)-3-trifluoromethyl-octa-2,4,6-trienoic acid]	29	–	–
CCOc1c(\C(=C/C=C/C(C)=C/C(=O)O)C(F)(F)F)cc(C(C)(C)C)cc1C(C)(C)C [Example 5, (2E,4E,6E)-3-methyl-7-(2-ethoxy-3,5-di-tert-butylphenyl)-8,8,8-trifluoroocta-2,4,6-trienoic acid]	–	0.038	30

From US20040248919A1, “Fluorinated trienes and their use as rxr modulators” (priority 2001, published 2004)
